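In this assay, cells in 96-well plates receive the compound at five concentrations for 48 hours. Endpoints are linearly interpolated between the surrounding concentrations. The concentration for 50% growth inhibition is given as GI50. The concentration for full growth arrest is given as TGI.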

Some test systems named below: SF-539 CNS; NCI-H460 lung; SNB-19 CNS; IGROV1 ovarian; MALME-3M melanoma; HCT-116 colon; HT29 colon; KM12 colon; ACHN renal; SF-295 CNS.
What all share (assay): NCI anticancer screen, dose series, 48 h

Regarding `CCOc1ccc2c(-c3ccnc(Nc4cc(OC)cc(C(F)(F)F)c4)n3)cnn2n1`, the GI50 is 5.96 µM in the assay on SF-539 CNS; over 15.7 µM with NCI-H460 lung; over 25 µM in the assay with SNB-19 CNS; 4.87 µM in the assay with IGROV1 ovarian; over 25 µM in the assay on MALME-3M melanoma; 6.42 µM in the assay on HCT-116 colon. Besides, the GI50 in the assay on HT29 colon is 8.4 µM; in the assay with KM12 colon it was 3.58 µM; in the assay on ACHN renal it was over 25 µM; in the assay with SF-295 CNS it was over 14.6 µM. The TGI in the assay with SF-539 CNS is over 14.7 µM; in the assay on NCI-H460 lung, over 25 µM; in the assay with SNB-19 CNS, over 25 µM; in the assay on IGROV1 ovarian it was over 25 µM; in the assay with MALME-3M melanoma, over 25 µM; in the assay with HCT-116 colon it was over 25 µM. The TGI with HT29 colon, in the assay on KM12 colon, in the assay on ACHN renal and in the assay with SF-295 CNS was over 25 µM in each case.

Take `O=C1C2C(C(=O)N1c1ccccc1)C1c3ccccc3C2C2C(=O)N(c3ccccc3)C(=O)C21` (centres undefined): the TGI with SF-539 CNS is 31.4 µM; in the assay on NCI-H460 lung it was over 100 µM; with SNB-19 CNS, over 100 µM; in the assay on IGROV1 ovarian, over 100 µM; in the assay on MALME-3M melanoma, 67.8 µM; in the assay on HCT-116 colon, over 100 µM. Also, the TGI in the assay with HT29 colon is over 100 µM; with KM12 colon, over 100 µM; in the assay on ACHN renal it was over 100 µM; in the assay with SF-295 CNS it was 15.5 µM.

For the compound `COc1ccc2c(c1)nc(NNC(=O)c1cnccn1)c1cccn12`, the GI50 was 0.393 µM with SF-539 CNS; 0.125 µM in the assay with NCI-H460 lung; 0.381 µM in the assay with SNB-19 CNS; 0.107 µM in the assay on IGROV1 ovarian; 1.06 µM in the assay on MALME-3M melanoma; 0.143 µM with HCT-116 colon. The GI50 with HT29 colon is 0.354 µM; with KM12 colon, 0.245 µM; with ACHN renal it was 0.0906 µM; in the assay with SF-295 CNS, 0.175 µM. Moreover, the TGI worked out at 2.6 µM in the assay with SF-539 CNS; 4.02 µM in the assay with NCI-H460 lung; 10.3 µM in the assay with SNB-19 CNS; 2.22 µM in the assay on IGROV1 ovarian; 2.93 µM in the assay with MALME-3M melanoma; 2.71 µM with HCT-116 colon. The values for the TGI with KM12 colon, with ACHN renal and in the assay on SF-295 CNS were 9.64 µM, 1.4 µM and 1.76 µM, respectively.

Consider `O=[N+]([O-])c1cc[n+]([O-])c2ccccc12`, for which the GI50 was 0.181 µM with SF-539 CNS; 0.033 µM in the assay with NCI-H460 lung; 0.374 µM in the assay on SNB-19 CNS; 0.259 µM in the assay on IGROV1 ovarian; 0.147 µM with MALME-3M melanoma; 0.0698 µM in the assay with HCT-116 colon. Moreover, the GI50 was 0.246 µM in the assay with HT29 colon, 0.0832 µM with KM12 colon, 0.142 µM in the assay on ACHN renal and 0.2 µM in the assay on SF-295 CNS. Moreover, the TGI in the assay with SF-539 CNS was 0.541 µM; in the assay with NCI-H460 lung, 0.162 µM; with SNB-19 CNS it was 2.91 µM; in the assay with IGROV1 ovarian, 1.03 µM; with MALME-3M melanoma, 1.12 µM; with HCT-116 colon, 0.316 µM. Further, the TGI came out at 1.09 µM in the assay on HT29 colon, 0.332 µM in the assay on KM12 colon, 0.512 µM in the assay on ACHN renal and 0.627 µM with SF-295 CNS.

`COc1ccccc1N=Nc1c(-c2ccccc2)nn(C(=O)CC(=O)Nc2cccc(C)c2)c1-c1ccccc1`: the TGI in the assay with SF-539 CNS, in the assay with NCI-H460 lung, with SNB-19 CNS, in the assay on IGROV1 ovarian, with MALME-3M melanoma and with HCT-116 colon was over 100 µM each time. Moreover, the TGI with HT29 colon is 33.3 µM; with KM12 colon, over 100 µM; in the assay with ACHN renal it was over 100 µM; in the assay on SF-295 CNS, over 100 µM.

Consider `CN(C)Cc1ccc(-c2cc3onc(-c4ccccc4)c3c(=O)n2C)cc1`, for which the TGI was 46.8 µM in the assay on SF-539 CNS; 32.3 µM with NCI-H460 lung; over 100 µM in the assay on SNB-19 CNS; over 100 µM in the assay on IGROV1 ovarian; 72.5 µM with MALME-3M melanoma; 30.3 µM in the assay with HCT-116 colon. Moreover, the TGI in the assay with HT29 colon was 29.8 µM; in the assay with KM12 colon it was 43.8 µM; in the assay with ACHN renal, over 100 µM; in the assay with SF-295 CNS, 46.5 µM.

As to `N#Cc1nc(-c2ccc(F)cc2)oc1S(=O)(=O)N1CCCCC1`, the GI50 is 1.73 µM with SF-539 CNS; 4.77 µM in the assay on NCI-H460 lung; 11 µM in the assay on SNB-19 CNS; 1.75 µM with IGROV1 ovarian; 1.69 µM with MALME-3M melanoma; 1.79 µM with HCT-116 colon. Moreover, the GI50 in the assay with HT29 colon was 2.4 µM; in the assay on KM12 colon it was 5.23 µM; with ACHN renal, 1.76 µM; with SF-295 CNS, 14.1 µM. The TGI in the assay on SF-539 CNS came to 3.12 µM; in the assay with NCI-H460 lung it was 19.6 µM; in the assay with SNB-19 CNS, 23 µM; in the assay on IGROV1 ovarian it was 3.5 µM; in the assay on MALME-3M melanoma, 3.37 µM; in the assay with HCT-116 colon, 3.54 µM. The TGI in the assay on HT29 colon was found to be 5.42 µM; in the assay with KM12 colon, 19.3 µM; in the assay with ACHN renal it was 3.15 µM; in the assay on SF-295 CNS, 27.4 µM.

Consider `C=CC(=O)N1CCC(c2ccc(C(N)=O)c(-c3ccc(Oc4ccccc4)cc3)n2)CC1`, for which the GI50 in the assay with SF-539 CNS is 40.3 µM; with NCI-H460 lung, 46.2 µM; in the assay on SNB-19 CNS it was 47.9 µM; with IGROV1 ovarian it was 19.1 µM; in the assay on MALME-3M melanoma it was 36.1 µM; in the assay with HCT-116 colon, 35.9 µM. Further, the GI50 in the assay with HT29 colon is 46.7 µM; in the assay on KM12 colon it was 39.6 µM; in the assay with ACHN renal, 25.3 µM; with SF-295 CNS it was 27.3 µM. Also, the TGI in the assay on SF-539 CNS, in the assay with NCI-H460 lung, in the assay on SNB-19 CNS, in the assay on IGROV1 ovarian, with MALME-3M melanoma and in the assay on HCT-116 colon was over 100 µM throughout. Besides, the TGI in the assay with HT29 colon, in the assay on KM12 colon, in the assay on ACHN renal and with SF-295 CNS was over 100 µM each time.

As for `COC(=O)CCC(NC(=S)N/N=C(\C)c1ccc[nH]1)C(=O)OC` (centres undefined), the TGI in the assay with SF-539 CNS, in the assay on NCI-H460 lung, in the assay with SNB-19 CNS, in the assay with IGROV1 ovarian, in the assay with MALME-3M melanoma and in the assay with HCT-116 colon was over 100 µM each time. Further, the TGI in the assay with HT29 colon, with KM12 colon, in the assay on ACHN renal and with SF-295 CNS was over 100 µM in each case.

The values above are taken from PubChem BioAssay (NCI).
